Reference: patent US20030079246A1, “Herbicide resistant plants” (priority 1999, published 2003)
Where a name gives a salt, the structure may show the parent alone.

Biological target: mutant form of rice EPSPS
Assay: EPSPS enzyme assay, inhibition of purified mutant rice EPSPS by glyphosate
Assay type: biochemical
Source text: The resultant products are gel purified and placed into a tube in eqi-molar concentrations to serve as a template for another round of PCRs with the rice 5′ and 3′ oligos. The resultant products are cloned into pCRBlunt II using Invitrogens Zero Blunt TOPO kit. It is confirmed that the DNA sequence of the insert and its predicted open reading frame correspond to that of the predicted mature chloroplastic rice EPSPS protein (with the exception of the presence of an initiating Met) and also that the desired changes (the specific mutation of T to I and P to S at specific positions in the EPSPS sequence) are encoded. The thus cloned and verified rice epsps sequence is excised using Nde 1 and Xho 1 and the purified fragment cloned into pET24a (Novagen) digested similarly. The recombinant clones are introduced into BL21 (DE3), a codon optimised RP strain of E.coli supplied by Strategene. The EPSPS protein is expressed in this strain following addition of 1 mM IPTG to the fermenter medium (LB supplemented with 100 ug/ml Kanamycin). […]

SMILES: O=C(O)CNCP(=O)(O)O [potassium salt of glyphosate]
- IC50 (at 40 μM PEP, 2 mM shikimate-3-Pi): ~600 µM
- Ki (mutant EPSPS, read-out: estimated Ki value): ~200 µM
